{"source": "paper PMC7269486", "about": "“MK-571, a Cysteinyl Leukotriene Receptor 1 Antagonist, Inhibits Hepatitis C Virus Replication” (Antimicrobial Agents and Chemotherapy, 2020)", "key": {"[1]": {"assay": "Cytotoxicity assay (CellTiter 96 AQueous One)", "assay_type": "cell-based", "settings": "human", "procedure": "Assessment of the compound cytotoxicity was performed with the CellTiter 96 AQueous One assay (Promega), according to the manufacturer’s instructions. Huh7.5 cells were seeded at a density of 5,000 cells/well in a 96-well plate and incubated 24 h before addition of increasing concentrations of the indicated compounds. After 48 h, cells were incubated 4 h in the presence of the CellTiter 96 AQueous One solution reagent, and absorbance was measured at 490 nm."}, "[2]": {"test_system": "HCV genotype 1b subgenomic replicon", "assay": "Anti-HCV activity in the subgenomic replicon model (HCV-SGR RNA by RT-qPCR in Huh7.5-SGR cells)", "assay_type": "cell-based, Hepatitis C virus", "settings": "for effect on the anti-HCV activity of MK-571: compound added to MK-571 (10 or 50 μM); for effect on the anti-HCV activity of MK-571 / effect on HCV-SGR RNA levels / replication: increasing concentrations; for effect on HCV-SGR RNA levels / replication: compound alone; for effect of MRP-1 inhibitor on MK-571 anti-HCV activity: added to MK-571 (probenecid 1 mM), data not shown", "procedure": "Plasmid I389-Neo/NS3-3′/5.1, which contains a neomycin resistance gene and an HCV genotype 1b subgenome, was kindly provided by Ralf Bartenschlager (University of Heidelberg, Heidelberg, Germany). This plasmid was transfected into Huh7.5 cells to generate Huh7.5-SGR cells stably harboring an HCV genotype 1b subgenomic replicon (SGR).\nHuh7.5 cells stably harboring an HCV genotype 1b bicistronic replicon (I389-Neo/NS3-3′/5.1) were seeded at the density of 5,000 cells/well in a 96-well plate. The cells were treated for 48 h with the tested compounds diluted in complete DMEM containing 1% dimethyl sulfoxide (DMSO) with 0.5 mg/ml of G418. Total RNA was extracted using the RNeasy 96 kit (Qiagen, Hilden, Germany). HCV-SGR RNA levels were measured by reverse transcriptase quantitative PCR (RT-qPCR) using the TaqMan technology with HCV-specific primers (forward primer, 5′-CGC CCA AAC CAG AAT ACG A-3′; and reverse primer, 5′-AGATAGTACACCCTTTTGCCAGATG-3′) and a qPCR probe (5′-6-carboxyfluorescein [FAM]-CAA TGT GTC AGT CGG-6-carboxytetramethylrhodamine [TAMRA]-0.3′). The data were analyzed with the 2^−ΔΔ^CT method, with all samples normalized to glyceraldehyde-3-phosphate dehydrogenase (GAPDH) mRNA. All experiments were performed in triplicate. HCV-SGR RNA relative quantities were plotted against compound concentrations and fitted with a four-parameter logistic curve with SigmaPlot v11 software. EC50s were determined from the curves."}, "[3]": {"test_system": "Huh7.5-SGR cells harboring HCV-SGR with neomycin resistance gene", "assay_type": "cell-based, Hepatitis C virus", "settings": "100 μM MK-571, 2 weeks, no G418", "text": "FIG 2 Anti-HCV activity of MK-571. (A) Dose-response curve and (B) fold decrease of MK-571 antiviral activity in Huh7.5 cells stably expressing an HCV genotype 1b subgenomic replicon. Data are shown as means ± SD from at least two independent experiments performed in triplicate. […]\nWe next examined HCV-SGR clearance during 2 weeks of treatment with MK-571. […]"}, "[4]": {"test_system": "HCV-J6/JFH1 (genotype 2a/2a full-length infectious model)", "assay": "Antiviral activity in the HCV infectious model (luciferase reporter)", "assay_type": "cell-based, Hepatitis C virus", "settings": "Huh7.5 cells infected with J6/JFH1, increasing concentrations, 48 h after infection", "procedure": "The anti-HCV activity of MK-571 was then confirmed in a chimeric genotype 2a/2a HCV full-length infectious model (HCV-J6/JFH1) containing a luciferase reporter gene. Huh7.5 cells were infected with HCV-J6/JFH1 in the presence of an increasing concentration of MK-571, and luciferase activity was quantified 48 h after infection. […] However, MK-571 anti-HCV activity appeared higher in the genotype 1b HCV-SGR than the genotype 2a HCV full-length infectious model (Fig. 2D).\nHuh7.5 cells were incubated 24 h before infection. Then, cells were infected with HCV (J6/JFH1 strain) at an mutiplicity of infection (MOI) of 0.2 during 8 h in the presence of drugs. HCV-infected cells were washed with phosphate-buffered saline (PBS) and incubated for 48 h in fresh medium containing the drugs. Then, luciferase activity was measured and plotted against compound concentrations."}, "[5]": {"settings": "Huh7.5 cells, 48 h, read-out: CC50 in Huh7.5 cells"}}, "note": "Values joined by “and” are separate entries in the source; they are usually repeats but may differ in a detail not shown here. Equal entries are not always repeated. “Also recorded” adds a separate entry of the source. Where two headings read alike, the source gives them in different places.", "data": [{"compound": "CCC(CC)(CC(=O)Nc1cccc(/C=C/c2nc(C3CCC3)cs2)c1)C(=O)O", "note": "[Cinalukast]", "values": [{"measurement": "CC50 at 48 h", "setting": "[1]; [5]", "value": "> 100", "unit": "µM"}, {"measurement": "effect on the anti-HCV activity of MK-571", "setting": "[2]; Huh7.5-SGR cells", "value": "completely reversed its antiviral effect; also recorded: full reversion achieved at the highest dose tested"}, {"measurement": "effect on HCV-SGR RNA levels / replication", "setting": "[2]; Huh7.5-SGR cells", "value": "modest proviral effect on HCV RNA replication"}]}, {"compound": "CCCCC/C=C\\C\\C=C/C=C/C=C/[C@@H](SC[C@H](N)C(=O)NCC(=O)O)[C@@H](O)CCCC(=O)O", "note": "[LTD4]", "values": [{"measurement": "effect on the anti-HCV activity of MK-571", "setting": "[2]; Huh7.5-SGR cells", "value": "completely reversed its antiviral effect; also recorded: reversed the antiviral effect of 50 μM of MK-571 in a dose-dependent manner"}, {"measurement": "concentration achieving complete reversion of the antiviral effect of MK-571", "setting": "[2]; in the presence of 50 μM MK-571, Huh7.5-SGR cells", "value": 1, "unit": "µM"}, {"measurement": "effect on HCV-SGR RNA levels / replication", "setting": "[2]; Huh7.5-SGR cells", "value": "did not exert any effect on HCV replication"}]}, {"compound": "CN(C)C(=O)CCSC(SCCC(=O)O)c1cccc(/C=C/c2ccc3ccc(Cl)cc3n2)c1", "note": "(stereo not shown) [MK-571]", "values": [{"measurement": "cell growth in the absence of G418", "setting": "[3]", "value": "cell growth was not significantly affected"}, {"measurement": "CC50 at 48 h", "setting": "[1]; [5]", "value": "> 100", "unit": "µM"}, {"measurement": "fold decrease of HCV-SGR RNA levels", "setting": "[2]; 50 μM MK-571 alone, Huh7.5-SGR cells", "value": "12 fold and ~11 fold"}, {"measurement": "fold increase of the anti-HCV effect of telaprevir", "setting": "[2]; 50 μM MK-571 in combination with 1 μM telaprevir, Huh7.5-SGR cells", "value": "approximately 3 fold"}, {"measurement": "antiviral effect compared with telaprevir", "setting": "[2]; 50 μM MK-571 vs 1 μM telaprevir, Huh7.5-SGR cells", "value": "equivalent to the effect of 1 μM of telaprevir"}, {"measurement": "EC50", "setting": "[2]; Hepatitis C virus, Huh7.5, 48 h, read-out: EC50 for decrease of HCV-SGR RNA", "value": "9 ± 0.3", "unit": "µM"}, {"measurement": "maximum HCV RNA level reduction", "setting": "[2]; Huh7.5-SGR cells, genotype 1b replicon", "value": "~1", "unit": "log10"}, {"measurement": "effect on HCV-J6/JFH1 replication (luciferase activity)", "setting": "[4]", "value": "dose-dependent decrease of HCV-J6/JFH1 RNA replication; also recorded: reduced the replication of the HCV full-length J6/JFH1 model in a dose-dependent manner"}]}, {"compound": "CC(C)c1ccc2c(c1)c(SC(C)(C)C)c(CC(C)(C)C(=O)O)n2Cc1ccc(Cl)cc1", "note": "[MK-886]", "values": [{"measurement": "effect on HCV-SGR RNA levels / replication", "setting": "[2]; Huh7.5-SGR cells", "value": "None of them affected HCV-SGR replication"}]}, {"compound": "O=C(O)c1ccccc1Nc1cccc(OCc2ccc3ccccc3n2)c1", "note": "[SR2640]", "values": [{"measurement": "CC50 at 48 h", "setting": "[1]; [5]", "value": "33.4 ± 3.9", "unit": "µM"}, {"measurement": "maximum increase of HCV-SGR RNA levels", "setting": "[2]; SR2640 alone, at 20 μM, Huh7.5-SGR cells", "value": 11, "unit": "fold"}, {"measurement": "effect on the anti-HCV activity of MK-571", "setting": "[2]; Huh7.5-SGR cells", "value": "completely reversed its antiviral effect; also recorded: not only reversed its anti-HCV activity but also increased HCV replication at the highest concentrations tested"}, {"measurement": "effect on HCV-SGR RNA levels / replication", "setting": "[2]; Huh7.5-SGR cells", "value": "increased HCV-SGR RNA levels in a dose-dependent manner"}]}, {"compound": "CCC[C@H](NC(=O)[C@@H]1[C@H]2CCC[C@H]2CN1C(=O)[C@@H](NC(=O)[C@@H](NC(=O)c1cnccn1)C1CCCCC1)C(C)(C)C)C(=O)C(=O)NC1CC1", "note": "[Telaprevir]", "values": [{"measurement": "CC50 at 48 h", "setting": "[1]", "value": "> 20", "unit": "µM"}]}, {"compound": "COc1cc(C(=O)NS(=O)(=O)c2ccccc2C)ccc1Cc1cn(C)c2ccc(NC(=O)OC3CCCC3)cc12", "note": "[Zafirlukast]", "values": [{"measurement": "CC50 at 48 h", "setting": "[1]; [5]", "value": "> 100", "unit": "µM"}, {"measurement": "effect on the anti-HCV activity of MK-571", "setting": "[2]; Huh7.5-SGR cells", "value": "completely reversed its antiviral effect; also recorded: full reversion achieved at the highest dose tested"}, {"measurement": "effect on HCV-SGR RNA levels / replication", "setting": "[2]; Huh7.5-SGR cells", "value": "modest proviral effect on HCV RNA replication"}]}, {"compound": "CCCN(CCC)S(=O)(=O)c1ccc(C(=O)O)cc1", "note": "[probenecid]", "values": [{"measurement": "effect of MRP-1 inhibitor on MK-571 anti-HCV activity", "setting": "[2]", "value": "did not modify its anti-HCV activity; also recorded: lack of effect on MK-571 antiviral activity"}, {"measurement": "effect on HCV-SGR RNA levels", "setting": "[2]; probenecid 1 mM alone, Huh7.5-SGR cells", "value": "had no effect on HCV replication; also recorded: none of these two compounds reduced HCV-SGR RNA levels; also recorded: lack of anti-HCV activity"}]}, {"compound": "CC(c1cc2ccccc2s1)N(O)C(N)=O", "note": "(stereo not shown) [zileuton]", "values": [{"measurement": "effect on HCV-SGR RNA levels / replication", "setting": "[2]; Huh7.5-SGR cells", "value": "None of them affected HCV-SGR replication"}]}, {"compound": "apigenin homodimer [APN]", "values": [{"measurement": "effect of MRP-1 inhibitor on MK-571 anti-HCV activity", "setting": "[2]", "value": "lack of effect on MK-571 antiviral activity"}, {"measurement": "effect on HCV-SGR RNA levels", "setting": "[2]; apigenin homodimer 0.1 μM alone, Huh7.5-SGR cells", "value": "had no effect on HCV replication; also recorded: none of these two compounds reduced HCV-SGR RNA levels; also recorded: lack of anti-HCV activity"}]}]}
